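Method: 48-hour compound exposure of cells in 96-well plates, five concentrations, linear interpolation of endpoints. At the GI50, growth is halved.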 Activity calls are given as the source filed them. Cut-off read from the data, not from the text of the source: active = GI50 up to about 1.1 µM and inactive = higher.
What was measured:
Experiment in all cases: NCI anticancer screen, dose series, 48 h
SK-MEL-2 = tested on: SK-MEL-2
UACC-257 = tested on: UACC-257
UACC-62 = tested on: UACC-62
MDA-N = tested on: MDA-N
RPMI-8226 = tested on: RPMI-8226
CCRF-CEM = tested on: CCRF-CEM
NCI-H460 = tested on: NCI-H460
HCC 2998 = tested on: HCC 2998
COLO 205 = tested on: COLO 205
MDA-MB-231 = tested on: MDA-MB-231
SF-295 = tested on: SF-295
MDA-MB-435 = tested on: MDA-MB-435
MCF7 = tested on: MCF7
OVCAR-8 = tested on: OVCAR-8
SK-MEL-28 = tested on: SK-MEL-28
786-0 = tested on: 786-0
SF-539 = tested on: SF-539
M14 = tested on: M14
SK-OV-3 = tested on: SK-OV-3
SR = tested on: SR

Measured: GI50

CCN(CC)CCOc1ccc(N2C(=O)c3cc(OC)c(OC)cc3C2=O)cc1
inactive: SK-MEL-2 > 100 µM | UACC-257 > 100 µM | UACC-62 > 100 µM | MDA-N > 100 µM | RPMI-8226 > 100 µM | CCRF-CEM > 100 µM | NCI-H460 > 100 µM | HCC 2998 > 100 µM | COLO 205 > 100 µM | MDA-MB-231 > 100 µM | SF-295 > 100 µM | MDA-MB-435 > 100 µM | MCF7 > 100 µM | OVCAR-8 > 100 µM | SK-MEL-28 > 100 µM | 786-0 > 100 µM | SF-539 > 100 µM | M14 > 100 µM | SK-OV-3 > 100 µM | SR > 100 µM

CCOC(=O)OC1(c2ccccc2)CCN(C)CC1
inactive: SK-MEL-2 > 100 µM | UACC-257 > 100 µM | UACC-62 > 100 µM | MDA-N > 100 µM | RPMI-8226 > 100 µM | CCRF-CEM > 100 µM | NCI-H460 > 100 µM | HCC 2998 > 100 µM | COLO 205 > 100 µM | MDA-MB-231 > 100 µM | SF-295 > 100 µM | MDA-MB-435 > 100 µM | MCF7 > 100 µM | OVCAR-8 > 100 µM | SK-MEL-28 > 100 µM | 786-0 > 100 µM | SF-539 > 100 µM | M14 > 100 µM | SK-OV-3 > 100 µM | SR > 100 µM

CCOC(=O)c1c(-c2ccc(Cl)cc2)c(C#N)c(=S)n(C2OC(COC(C)=O)C(OC(C)=O)C(OC(C)=O)C2OC(C)=O)c1-c1ccccc1 (stereo not drawn)
inactive: SK-MEL-2 > 100 µM | UACC-257 > 100 µM | UACC-62 > 100 µM | MDA-N > 100 µM | RPMI-8226 > 100 µM | CCRF-CEM > 100 µM | NCI-H460 > 100 µM | HCC 2998 > 100 µM | COLO 205 > 100 µM | MDA-MB-231 > 100 µM | SF-295 > 100 µM | MDA-MB-435 > 100 µM | MCF7 > 100 µM | SK-MEL-28 > 100 µM | 786-0 > 100 µM | SF-539 > 100 µM | M14 57.5 µM | SK-OV-3 > 100 µM | SR > 100 µM

O=C1CSC2=NC3=C(COC/C3=C\c3ccc(Br)cc3)C(c3ccc(Br)cc3)N12 (stereo not drawn)
inactive: SK-MEL-2 > 100 µM | UACC-257 > 100 µM | UACC-62 > 100 µM | MDA-N 43 µM | RPMI-8226 20.9 µM | CCRF-CEM 17.6 µM | NCI-H460 51.2 µM | HCC 2998 > 100 µM | COLO 205 58.7 µM | MDA-MB-231 > 100 µM | SF-295 55.7 µM | MDA-MB-435 49 µM | MCF7 44.4 µM | OVCAR-8 74.6 µM | 786-0 83.6 µM | SF-539 > 100 µM | M14 28.8 µM | SK-OV-3 > 100 µM | SR 15.3 µM

[N-]=[N+]=CC(=O)OCC1NC(=O)C(COC(=O)C=[N+]=[N-])NC1=O (stereo not drawn)
inactive: SK-MEL-2 > 100 µM | UACC-257 > 100 µM | UACC-62 > 100 µM | MDA-N > 100 µM | RPMI-8226 > 100 µM | CCRF-CEM > 100 µM | NCI-H460 > 100 µM | HCC 2998 > 100 µM | COLO 205 > 100 µM | MDA-MB-231 > 100 µM | SF-295 > 100 µM | MDA-MB-435 > 100 µM | MCF7 > 100 µM | OVCAR-8 > 100 µM | SK-MEL-28 > 100 µM | 786-0 > 100 µM | SF-539 > 100 µM | M14 > 100 µM | SK-OV-3 > 100 µM | SR > 100 µM

O=[N+]([O-])c1ccc(Cl)cc1/C=N/C12CC3CC(CC(C3)C1)C2
inactive: SK-MEL-2 > 66.8 µM | UACC-257 > 31.6 µM | UACC-62 30.6 µM | MDA-N 52.5 µM | RPMI-8226 20.2 µM | CCRF-CEM 5.64 µM | NCI-H460 > 74 µM | HCC 2998 > 82.4 µM | COLO 205 45 µM | MDA-MB-231 40.3 µM | SF-295 57.3 µM | MDA-MB-435 47.6 µM | MCF7 31.3 µM | OVCAR-8 43.1 µM | SK-MEL-28 76.9 µM | 786-0 41.1 µM | SF-539 31.7 µM | M14 45.5 µM | SK-OV-3 > 100 µM | SR 7.03 µM

CC1C(c2ccccc2O)c2cc3c(cc2OC1N1CCCC1)OCO3 (stereo not drawn)
inactive: SK-MEL-2 23.4 µM | UACC-257 25.1 µM | UACC-62 35.5 µM | MDA-N 18.8 µM | RPMI-8226 24.5 µM | CCRF-CEM 23.8 µM | NCI-H460 16.1 µM | HCC 2998 40.6 µM | COLO 205 23.3 µM | MDA-MB-231 27.8 µM | SF-295 27.2 µM | MDA-MB-435 26.9 µM | MCF7 26.5 µM | OVCAR-8 11.5 µM | SK-MEL-28 20.4 µM | 786-0 20 µM | SF-539 24.9 µM | M14 17.9 µM | SK-OV-3 88.7 µM | SR 18.8 µM

Source: ChEMBL document CHEMBL1201862, “PubChem BioAssay data set” (2004)
